The test system of series [1] is Scirpus juncoides. In words: Test Example 1: herbicidal effect test by treatment of rice paddy soil (immediately after seeding). To be noted: in Schoenoplectiella juncoides, 336 h, 120 g/10a active ingredient, dry weight vs untreated area, 14 days after treatment, read-out: Herbicidal rate (%) Scirpus juncoides. It is filed as in vivo. In a few lines: (§1)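 Pre-emergence paddy water application, 120 g a.i./10 ares, applied immediately post-seeding into ~3 cm flood; glasshouse; duplicate pots; dry weight at 14 d → % inhibition = (1 − treated/untreated) × 100.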

In series [2] the test system is Echinochloa crus-galli. The description is as above. The series is classed as in vivo. The note with it: in Echinochloa crus-galli, 336 h, 120 g/10a active ingredient, dry weight vs untreated area, 14 days after treatment, read-out: Herbicidal rate (%) Echinochloa crus-galli. In a few lines:
as §1

For series [3], the system named is broad leaf weeds (Lindernia pyxidaria and Monochoria vaginalis). Described as above. The series is classed as in vivo. To be noted: 336 h, 120 g/10a active ingredient, dry weight vs untreated area, 14 days after treatment. The procedure, abridged:
as §1

Series [4] has as its system Amaranthus viridis. The series can be described thus: Test Example 4: herbicidal effect test by treatment of leave and stem in dry field farming (seven days after seeding). It is filed as in vivo. To be noted: Amaranthus viridis, 336 h; 120 g/10a active ingredient; emulsion sprayed seven days after seeding; evaluated 14 days after treatment; read-out: herbicidal effect (herbicidal rate), Amaranthus viridis. In a few lines: (§2)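 Duplicate pots were scored 14 days post-spray by dry weight, herbicidal rate = {1 − treated/untreated average dry weight} × 100. The water-diluted emulsion, equivalent to 120 g active ingredient per 10 ares in 100 L, was applied seven days after sowing 20 seeds each into the upper 1 cm of alluvial soil.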

Series [5] concerns Echinochloa crus-galli. The description is as above. To be noted: Echinochloa crus-galli, 336 h; 120 g/10a active ingredient; emulsion sprayed seven days after seeding; evaluated 14 days after treatment; read-out: herbicidal effect (herbicidal rate), Echinochloa crus-galli. It is filed as in vivo. The procedure, abridged:
as §2

For series [6], the system named is southern crabgrass. The description is as above. It is filed as in vivo. The note with it: Digitaria ciliaris, 336 h; 120 g/10a active ingredient; emulsion sprayed seven days after seeding; evaluated 14 days after treatment; read-out: herbicidal effect (herbicidal rate), southern crabgrass. In a few lines: as §2
The subject of series [7] is Chenopodium album. The series is described as above. The series is classed as in vivo. The note with it: Chenopodium album, 336 h; 120 g/10a active ingredient; emulsion sprayed seven days after seeding; evaluated 14 days after treatment; read-out: herbicidal effect (herbicidal rate), Chenopodium album. In a few lines: as §2
Series [8] relates to Amaranthus viridis. The series can be described thus: Test Example 3: herbicidal effect test by treatment of dry field farming soil (one day after seeding). It is filed as in vivo. To be noted: Amaranthus viridis, 336 h, 120 g/10a active ingredient, evaluated 14 days after treatment, read-out: herbicidal rate, Amaranthus viridis. The procedure, abridged:
(§3)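 Compound emulsions are sprayed on the soil surface one day after sowing (120 g a.i. per 10 ares) before weeds emerge. Effect is expressed as percent dry-weight reduction versus untreated controls 14 days post-treatment.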

Series [9] deals with Echinochloa crus-galli. Described as above. It is filed as in vivo. To be noted: Echinochloa crus-galli, 336 h, 120 g/10a active ingredient, evaluated 14 days after treatment, read-out: herbicidal rate, Echinochloa crus-galli. In a few lines: as §3
The test system of series [10] is southern crabgrass. The series is described as above. The series is classed as in vivo. To be noted: Digitaria ciliaris, 336 h, 120 g/10a active ingredient, evaluated 14 days after treatment, read-out: herbicidal rate, southern crabgrass. In a few lines: as §3
Series [11] has as its system Chenopodium album. Described as above. The series is classed as in vivo. The note with it: Chenopodium album, 336 h, 120 g/10a active ingredient, evaluated 14 days after treatment, read-out: herbicidal rate, Chenopodium album. In a few lines:
as §3

Series [12] deals with Scirpus juncoides. The series can be described thus: Test Example 2: herbicidal effect test by treatment during growing period in paddy rice cultivation (seven days after seeding). To be noted: Schoenoplectiella juncoides, 336 h, 120 g/10a active ingredient, assessed 14 days after treatment, dry weight vs untreated area, read-out: herbicidal rate (%) Scirpus juncoides. It is filed as in vivo. In a few lines: (§4)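 Greenhouse flooded-pot test, seeds sown in puddled paddy soil; emulsion applied into water 7 d after seeding, 120 g a.i./10 a. Dry-weight-based herbicidal rate at 14 d, n=2.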

The test system of series [13] is Echinochloa crus-galli. The series is described as above. It is filed as in vivo. To be noted: Echinochloa crus-galli, 336 h, 120 g/10a active ingredient, assessed 14 days after treatment, dry weight vs untreated area, read-out: herbicidal rate (%) Echinochloa crus-galli. In a few lines: as §4
The subject of series [14] is broad leaf weeds (Lindernia pyxidaria and Monochoria vaginalis). The description is as above. The series is classed as in vivo. The note with it: 336 h, 120 g/10a active ingredient, assessed 14 days after treatment, dry weight vs untreated area. In a few lines:
as §4

[15] abbreviates: Monochoria vaginalis, read-out: Herbicidal rate (%) Monochoria vaginalis.
Setting [16] is: in Lindernia, Lindernia pyxidaria, read-out: Herbicidal rate (%) Lindernia pyxidaria.
[17] abbreviates: Lindernia pyxidaria, read-out: herbicidal rate (%) Lindernia pyxidaria.
[18] abbreviates: Monochoria vaginalis, read-out: herbicidal rate (%) Monochoria vaginalis.

A word on the melting point: it is the temperature, or range, at which the solid turns liquid. Consider `COCC(C)n1oc(=O)c(Cc2ccccc2NS(=O)(=O)C(F)(F)F)c1C` (centres unmarked) [Compound 1-149, 1,1,1-trifluoro-N-[2-[[2-(2-methoxy-1-methyl-ethyl)-3-methyl-5-oxo-isoxazol-4-yl]methyl]phenyl]methanesulfonamide], for which the melting point lay in the range of 107 to 109 °C. Further, in the series with Scirpus juncoides [1], the pest or weed control at 1200 g/ha stood at 90%. Moreover, in the series on Echinochloa crus-galli [2], the pest or weed control at 1200 g/ha amounted to 90%. For the same compound, the pest or weed control at 1200 g/ha in [3] (setting [15]) was determined as 90%. Further, the pest or weed control at 1200 g/ha in series [3] (setting [16]) was found to be 90%. In the series with Amaranthus viridis [4], the pest or weed control at 1200 g/ha is 40%. Also, the pest or weed control at 1200 g/ha with Echinochloa crus-galli [5] came out at 90%. In the series on southern crabgrass [6], the pest or weed control at 1200 g/ha was found to be 90%. The pest or weed control at 1200 g/ha in the series on Chenopodium album [7] is 40%. Also, the pest or weed control at 1200 g/ha in the series on Amaranthus viridis [8] was found to be 40%. For the same compound, the pest or weed control at 1200 g/ha in the series on Echinochloa crus-galli [9] was 90%. Moreover, in the series on southern crabgrass [10], the pest or weed control at 1200 g/ha was found to be 90%. Also, the pest or weed control at 1200 g/ha with Chenopodium album [11] worked out at 40%. For the same compound, the pest or weed control at 1200 g/ha with Scirpus juncoides [12] was determined as 90%. Further, the pest or weed control at 1200 g/ha with Echinochloa crus-galli [13] came out at 100%. For the same compound, in series [14] (setting [17]), the pest or weed control at 1200 g/ha was 90%. Moreover, the pest or weed control at 1200 g/ha in series [14] (setting [18]) amounted to 90%.

`CCC(C)n1oc(=O)c(Cc2ccccc2N(C(=O)OC)S(=O)(=O)C(F)(F)F)c1C` (centres unmarked) [Compound 1-577, methyl N-[2-[(3-methyl-5-oxo-2-sec-butyl-isoxazol-4-yl)methyl]phenyl]-N-(trifluoromethylsulfonyl)carbamate]: the melting point was in the range of 75 to 80 °C. For the same compound, in the series with Scirpus juncoides [1], the pest or weed control at 1200 g/ha was 90%. Besides, the pest or weed control at 1200 g/ha in the series on Echinochloa crus-galli [2] was 90%. In series [3] (setting [15]), the pest or weed control at 1200 g/ha stood at 90%. In addition, in series [3] (setting [16]), the pest or weed control at 1200 g/ha is 90%. Moreover, in the series on Amaranthus viridis [4], the pest or weed control at 1200 g/ha stood at 40%. Further, in the series on Echinochloa crus-galli [5], the pest or weed control at 1200 g/ha was found to be 90%. The pest or weed control at 1200 g/ha with southern crabgrass [6] was determined as 90%. Also, the pest or weed control at 1200 g/ha with Chenopodium album [7] was 40%. Further, the pest or weed control at 1200 g/ha in the series with Amaranthus viridis [8] was 90%. The pest or weed control at 1200 g/ha in the series on Echinochloa crus-galli [9] is 90%. Moreover, the pest or weed control at 1200 g/ha in the series with southern crabgrass [10] came to 90%. Besides, in the series on Chenopodium album [11], the pest or weed control at 1200 g/ha came out at 90%. Also, the pest or weed control at 1200 g/ha in the series on Scirpus juncoides [12] amounted to 90%. For the same compound, the pest or weed control at 1200 g/ha with Echinochloa crus-galli [13] came out at 90%. For the same compound, the pest or weed control at 1200 g/ha in series [14] (setting [17]) turned out to be 90%. For the same compound, the pest or weed control at 1200 g/ha in [14] (setting [18]) is 90%.

As for `Cc1c(Cc2ccccc2N(S(=O)(=O)C(F)(F)F)S(=O)(=O)C(F)(F)F)c(=O)on1CC(C)C` [Compound 1-967, 1,1,1-trifluoro-N-[2-[(2-isobutyl-3-methyl-5-oxoisoxazol-4-yl)methyl]phenyl]-N-(trifluoromethylsulfonyl)methanesulfonamide], the melting point fell in the range of 120 to 122 °C. In addition, in the series with Scirpus juncoides [1], the pest or weed control at 1200 g/ha amounted to 90%. Also, the pest or weed control at 1200 g/ha with Echinochloa crus-galli [2] amounted to 90%. For the same compound, the pest or weed control at 1200 g/ha in series [3] (setting [15]) was 100%. Further, the pest or weed control at 1200 g/ha in [3] (setting [16]) was 90%. Further, in the series on Amaranthus viridis [4], the pest or weed control at 1200 g/ha came out at 40%. The pest or weed control at 1200 g/ha with Echinochloa crus-galli [5] was found to be 60%. Moreover, the pest or weed control at 1200 g/ha in the series with southern crabgrass [6] is 0%. The pest or weed control at 1200 g/ha in the series with Chenopodium album [7] was 40%. In the series with Amaranthus viridis [8], the pest or weed control at 1200 g/ha turned out to be 80%. In the series on Echinochloa crus-galli [9], the pest or weed control at 1200 g/ha came out at 50%. Moreover, the pest or weed control at 1200 g/ha in the series on southern crabgrass [10] came to 90%. In addition, in the series with Chenopodium album [11], the pest or weed control at 1200 g/ha worked out at 40%. In addition, the pest or weed control at 1200 g/ha in the series on Scirpus juncoides [12] is 80%. In addition, in the series on Echinochloa crus-galli [13], the pest or weed control at 1200 g/ha turned out to be 90%. The pest or weed control at 1200 g/ha in series [14] (setting [17]) is 100%. In series [14] (setting [18]), the pest or weed control at 1200 g/ha is 90%.

`COCC(C)n1oc(=O)c(Cc2ccccc2N(S(=O)(=O)C(F)(F)F)S(=O)(=O)C(F)(F)F)c1C` (centres unmarked) [Compound 1-997, 1,1,1-trifluoro-N-[2-[[2-(2-methoxy-1-methyl-ethyl)-3-methyl-5-oxo-isoxazol-4-yl]methyl]phenyl]-N-(trifluoromethylsulfonyl)methanesulfonamide] returned a melting point of 116 to 118 °C. In the series on Scirpus juncoides [1], the pest or weed control at 1200 g/ha worked out at 90%. In addition, in the series on Echinochloa crus-galli [2], the pest or weed control at 1200 g/ha was determined as 90%. The pest or weed control at 1200 g/ha in series [3] (setting [15]) came out at 80%. In addition, the pest or weed control at 1200 g/ha in series [3] (setting [16]) was found to be 90%. Moreover, the pest or weed control at 1200 g/ha with Amaranthus viridis [4] turned out to be 40%. For the same compound, the pest or weed control at 1200 g/ha in the series on Echinochloa crus-galli [5] was 70%. For the same compound, the pest or weed control at 1200 g/ha in the series with southern crabgrass [6] was determined as 40%. Besides, the pest or weed control at 1200 g/ha in the series with Chenopodium album [7] came to 0%. Moreover, the pest or weed control at 1200 g/ha with Amaranthus viridis [8] was determined as 50%. Also, the pest or weed control at 1200 g/ha in the series with Echinochloa crus-galli [9] was 90%. The pest or weed control at 1200 g/ha with southern crabgrass [10] worked out at 90%. In addition, the pest or weed control at 1200 g/ha in the series on Chenopodium album [11] was found to be 50%. Moreover, the pest or weed control at 1200 g/ha in the series with Scirpus juncoides [12] amounted to 90%. For the same compound, in the series on Echinochloa crus-galli [13], the pest or weed control at 1200 g/ha amounted to 90%. Besides, the pest or weed control at 1200 g/ha in series [14] (setting [17]) was determined as 70%. Further, the pest or weed control at 1200 g/ha in [14] (setting [18]) came out at 90%.

Values taken from patent US11109593B2, “Isoxazolin-5-one derivative and herbicide containing same as active ingredient” (HOKKO CHEMICAL INDUSTRY CO., LTD., priority 2017, dated 2021).
